Test results published in patent US20250332173A1, “COMPOUNDS AND METHODS FOR MODULATING NUCLEIC ACID SPLICING” (REMIX THERAPEUTICS INC., priority 2021, published 2025).
Read-outs that look alike come from different tables or passages of the source.

Columns and labels:
[1] = test system: HTT mRNA; test: RT-qPCR splicing assay, HTT canonical junction (CJ) and alternative junction (AJ) mRNA; format: cell-based, human; details: Homo sapiens; for AC50: increase in HTT alternative junction (AJ) mRNA, read-out: HTT AJ AC50
Outline: (§1)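 A673 or K562 cells were treated for 24 h at 37 °C with an 11-point 3-fold compound dilution series (top final concentration 10 uM, DMSO ≤0.25%). After lysis, one-step TaqMan RT-qPCR quantified junction transcripts, normalized to PPIA for A673 or to GAPDH/GUSB for K562.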

[2] = test system: MYB mRNA; test: RT-qPCR splicing assay, MYB canonical junction (CJ) and alternative junction (AJ) mRNA; format: cell-based, human; details: Homo sapiens; for AC50: increase in MYB alternative junction (AJ) mRNA, read-out: MYB AJ AC50
Outline: as §1

[3] = test system: SMN2 mRNA; test: RT-qPCR splicing assay, SMN2 canonical junction (CJ) mRNA; format: cell-based, human; details: Homo sapiens; canonical junction qPCR panel, Table 5; read-out: SMN2 (decrease in CJ mRNA levels, IC50)
Outline: (§2)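 Canonical-junction transcript levels in compound-treated A673 or K562 cells (24 h, up to 10 uM final) were determined from lysates by RT-qPCR with housekeeping-gene normalization.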

[4] = test system: Target C; test: RT-qPCR splicing assay panel, Target C canonical junction (CJ) mRNA; format: cell-based, human; details: Homo sapiens; canonical junction qPCR panel, Table 5; read-out: Target C (decrease in CJ mRNA levels, IC50)
Outline: as §2

[5] = test system: K562 (human chronic myelogenous leukemia) cells; test: Cell Titer Glo 2.0 cell viability assay; format: cell-based; details: Homo sapiens, K562, 72 h, K562 cells, 72 hours, Cell Titer Glo 2.0; read-out: K562 GI50
[6] = decrease in HTT canonical junction (CJ) mRNA, RT-qPCR, read-out: HTT CJ IC50
[7] = canonical junction qPCR panel, Table 5, read-out: HTT (decrease in CJ mRNA levels, IC50)
[8] = canonical junction qPCR panel, Table 5, read-out: MYB (decrease in CJ mRNA levels, IC50)
[9] = decrease in MYB canonical junction (CJ) mRNA, RT-qPCR, read-out: MYB CJ IC50

| Compound | IC50 [1, 6] [µM] | AC50 ([1]; RT-qPCR) [µM] | IC50 [1, 7] [µM] | IC50 [2, 8] [µM] | IC50 [2, 9] [µM] | AC50 ([2]; RT-qPCR) [µM] | IC50 [3] [µM] | IC50 [4] [µM] | GI50 [5] [µM] |
| --- | --- | --- | --- | --- | --- | --- | --- | --- | --- |
| Cc1cn2cc(-c3ncc4c(=O)n([C@H]5CCN[C@H](C)C5)ccc4n3)cc(F)c2n1 [Compound 1490, 2-(8-fluoro-2-methyl-imidazo[1,2-a]pyridin-6-yl)-6-[(2R,4S)-2-methyl-4-piperidyl]pyrido[4,3-d]pyrimidin-5-one] | 0.1 to 1 | < 0.1 | < 0.1 | < 0.1 | < 0.1 | < 0.1 | < 0.1 | 0.1 to 1 | 0.1 to 1 |
| CNC12CCC(n3ccc4nc(-c5cc6cn(C)nc6c(C)c5O)ccc4c3=O)(CC1)C2 [Compound 1522] | 0.1 to 1 | 0.1 to 1 | 0.1 to 1 | < 0.1 | < 0.1 | < 0.1 | < 0.1 | 0.1 to 1 | < 0.1 |
| CNC12CCC(n3ccc4nc(-c5cc6cn(C)nc6cc5O)ccc4c3=O)(CC1)C2 [Compound 1525] | 1 to 10 | 1 to 10 | 1 to 10 | < 0.1 | < 0.1 | < 0.1 | < 0.1 | > 10 | < 0.1 |
| Cc1cn2cc(-c3ccc4c(=O)n([C@@H]5CCN[C@H](C)C5)ccc4n3)cc(F)c2n1 [Compound 1475] | > 10 | 1 to 10 | 1 to 10 | 1 to 10 | 1 to 10 | 1 to 10 | 0.1 to 1 | 1 to 10 | 1 to 10 |
| Cc1cn2nc(-c3ccc4c(=O)n([C@H]5CCN[C@@H](C6CC6)C5)ncc4n3)cc(C)c2n1 [Compound 1550] | 0.1 to 1 | 0.1 to 1 | 0.1 to 1 | 0.1 to 1 | 0.1 to 1 | 0.1 to 1 | 0.1 to 1 | 0.1 to 1 | 1 to 10 |
| Cn1cc2cc(-c3ccc4c(=O)n(C56CCC(N)(CC5)C6)ccc4n3)c(O)cc2n1 [Compound 1481, 6-(4-aminonorbornane-1-yl)-2-(6-hydroxy-2-methyl-indazol-5-yl)-1,6-naphthyridin-5-one] | 1 to 10 | 0.1 to 1 | 0.1 to 1 | < 0.1 | 0.1 to 1 | < 0.1 | < 0.1 | 1 to 10 | < 0.1 |
| Cc1cn2cc(-c3ccc4c(=O)n(C56CCC(N)(CC5)C6)ccc4n3)cc(F)c2n1 [Compound 1492] | 1 to 10 | 1 to 10 | 1 to 10 | 0.1 to 1 | 0.1 to 1 | 0.1 to 1 | < 0.1 | 1 to 10 | 0.1 to 1 |
| Cc1cn2cc(-c3ccc4c(=O)n(C5C[C@H](C)N[C@@H](C)C5)ccc4n3)cc(F)c2n1 (stereo partly drawn) [Compound 1502, 6-[(2S,6S)-2,6-dimethyl-4-piperidyl]-2-(8-fluoro-2-methyl-imidazo[1,2-a]pyridin-6-yl)-1,6-naphthyridin-5-one] | 1 to 10 | 1 to 10 | 1 to 10 | 0.1 to 1 | 0.1 to 1 | 0.1 to 1 | < 0.1 | 1 to 10 | 0.1 to 1 |
| Cc1cn2nc(-c3ccc4c(=O)n([C@H]5CCNC6(CCC6)C5)ncc4n3)cc(C)c2n1 [Compound 1544, 6-[(8S)-5-azaspiro[3.5]nonan-8-yl]-2-(2,8-dimethylimidazo[1,2-b]pyridazin-6-yl)pyrido[2,3-d]pyridazin-5-one] | 0.1 to 1 | 0.1 to 1 | 0.1 to 1 | 0.1 to 1 | 0.1 to 1 | 0.1 to 1 | 0.1 to 1 | 0.1 to 1 | 0.1 to 1 |
| Cc1c(O)c(-c2ccc3c(=O)n(C45CCC(NC(C)C)(CC4)C5)ccc3n2)cc2cn(C)nc12 [Compound 1526] | > 10 | 1 to 10 | 1 to 10 | < 0.1 | < 0.1 | < 0.1 | < 0.1 | > 10 | 0.1 to 1 |
| Cc1cn2cc(-c3ncc4c(=O)n([C@H]5CCNC(C)(C)C5)ccc4n3)cc(F)c2n1 [Compound 1497, 6-[(4S)-2,2-dimethyl-4-piperidyl]-2-(8-fluoro-2-methyl-imidazo[1,2-a]pyridin-6-yl)pyrido[4,3-d]pyrimidin-5-one] | 1 to 10 | 0.1 to 1 | 0.1 to 1 | 0.1 to 1 | 0.1 to 1 | 0.1 to 1 | < 0.1 | 1 to 10 | 0.1 to 1 |
| Cc1c(O)c(-c2ccc3c(=O)n([C@H]4CC[C@@H](N(C)C)CC4)ccc3n2)cc2cn(C)nc12 [Compound 1485, 6-[4-(dimethylamino)cyclohexyl]-2-(6-hydroxy-2,7-dimethyl-indazol-5-yl)-1,6-naphthyridin-5-one] | 0.1 to 1 | 0.1 to 1 | 0.1 to 1 | 0.1 to 1 | 0.1 to 1 | 0.1 to 1 | < 0.1 | 0.1 to 1 | 0.1 to 1 |
| Cc1cn2cc(-c3nc(C)c4c(=O)n(C5C[C@H](C)N[C@@H](C)C5)ccc4n3)cc(F)c2n1 (stereo partly drawn) [Compound 1523] | 1 to 10 | 0.1 to 1 | 0.1 to 1 | 0.1 to 1 | < 0.1 | 0.1 to 1 | < 0.1 | 1 to 10 | 0.1 to 1 |
| Cc1c(O)c(-c2ccc3c(=O)n([C@H]4CCN[C@@H](C)C4)ccc3n2)cc2cn(C)nc12 [Compound 1520, 2-(6-hydroxy-2,7-dimethyl-indazol-5-yl)-6-[(2S,4S)-2-methyl-4-piperidyl]-1,6-naphthyridin-5-one] | 0.1 to 1 | < 0.1 | < 0.1 | < 0.1 | < 0.1 | < 0.1 | < 0.1 | 0.1 to 1 | < 0.1 |
| Cc1c(O)c(-c2ccc3c(=O)n([C@H]4CC[C@H](N(C)C)CC4)ccc3n2)cc2cn(C)nc12 [Compound 1484, 6-[4-(dimethylamino)cyclohexyl]-2-(6-hydroxy-2,7-dimethyl-indazol-5-yl)-1,6-naphthyridin-5-one] | 0.1 to 1 | < 0.1 | < 0.1 | < 0.1 | < 0.1 | < 0.1 | < 0.1 | 0.1 to 1 | < 0.1 |
| Cc1c(O)c(-c2ncc3c(=O)n([C@H]4CC[C@@H](N)C4)ccc3n2)cc2cn(C)nc12 [Compound 1473, 6-[(1S,3R)-3-aminocyclopentyl]-2-(6-hydroxy-2,7-dimethyl-indazol-5-yl)pyrido[4,3-d]pyrimidin-5-one] | > 10 | 1 to 10 | 1 to 10 | 0.1 to 1 | 0.1 to 1 | 0.1 to 1 | < 0.1 | 1 to 10 | 0.1 to 1 |
| Cc1cn2cc(-c3nc(C)c4c(=O)n(C5CCNCC5)ccc4n3)cc(F)c2n1 [Compound 1491, 2-(8-fluoro-2-methyl-imidazo[1,2-a]pyridin-6-yl)-4-methyl-6-(4-piperidyl)pyrido[4,3-d]pyrimidin-5-one] | 0.1 to 1 | 0.1 to 1 | 0.1 to 1 | 0.1 to 1 | 0.1 to 1 | 0.1 to 1 | < 0.1 | 0.1 to 1 | 0.1 to 1 |
| C[C@H]1C[C@@H](n2ccc3nc(-c4cc(F)c5nn(C)cc5c4)ncc3c2=O)CCN1 [Compound 1503, 2-(7-fluoro-2-methyl-indazol-5-yl)-6-[(2S,4S)-2-methyl-4-piperidyl]pyrido[4,3-d]pyrimidin-5-one] | 0.1 to 1 | 0.1 to 1 | 0.1 to 1 | 0.1 to 1 | < 0.1 | 0.1 to 1 | < 0.1 | 0.1 to 1 | 0.1 to 1 |
| Cc1c(O)c(-c2ncc3c(=O)n(C45CCC(N(C)C)(CC4)C5)ccc3n2)cc2cn(C)nc12 [Compound 1488] | 1 to 10 | 0.1 to 1 | 0.1 to 1 | 0.1 to 1 | 0.1 to 1 | 0.1 to 1 | < 0.1 | 1 to 10 | 0.1 to 1 |
| Cc1cn2cc(-c3ccc4c(=O)n([C@H]5CCN[C@@H](C)C5)ccc4n3)cc(F)c2n1 [Compound 1494] | 1 to 10 | 1 to 10 | 1 to 10 | 0.1 to 1 | 0.1 to 1 | 0.1 to 1 | < 0.1 | 1 to 10 | 0.1 to 1 |
